Several values for one entry are separate records, joined by “and”; a condition that tells them apart may be missing. Equal entries are not always repeated. Inconclusive results and toxic doses are left out. The calls were made as follows: active = survival T/C of 150% or more; inactive = T/C below 125% in these data.
System: CD2F1 mice, P388/DHAQ leukemia ip, median survival T/C
Experiment: NCI In Vivo Anticancer Drug Screen. Data for tumor model P388 Leukemia resistant to Dihydroxy Anthracenedione; NSC 299195 (intraperitoneal) in CD2F1 (CDF1) mice
Settings: endpoint: median survival time, higher = longer survival
Method: The antitumor activity of compounds was measured in mice bearing transplantable tumors. Survival or tumor size were measured and the results are expressed as the measurement made in the treated group (T) divided by the measurement made in the vehicle treated control group (C). The tumor model used in this assay is P388 Leukemia resistant to Dihydroxy Anthracenedione; NSC 299195 (intraperitoneal) in CD2F1 (CDF1) mice

[1] = dose: 13.0 mg/kg/injection, schedule: Q04DX003 (ip), vehicle: saline
[2] = dose: 21.6 mg/kg/injection, schedule: Q04DX003 (ip), vehicle: saline
[3] = dose: 36.0 mg/kg/injection, schedule: Q04DX003 (ip), vehicle: saline

Measured: T/C

O=C(O)CCCc1ccc(N(CCCl)CCCl)cc1
inactive: dose: 2.59 mg/kg/injection, schedule: Q04DX002 (ip), vehicle: saline with Tween-80 100 % of control | dose: 4.32 mg/kg/injection, schedule: Q04DX002 (ip), vehicle: saline with Tween-80 101 % of control | dose: 7.2 mg/kg/injection, schedule: Q04DX002 (ip), vehicle: saline with Tween-80 100 % of control | dose: 12.0 mg/kg/injection, schedule: Q04DX002 (ip), vehicle: saline with Tween-80 100 % of control | dose: 20.0 mg/kg/injection, schedule: Q04DX002 (ip), vehicle: saline with Tween-80 106 % of control

CC(CN1CC(=O)NC(=O)C1)N1CC(=O)NC(=O)C1 (stereo not drawn)
inactive: dose: 64.8 mg/kg/injection, schedule: Q04DX003 (ip), vehicle: saline 101 % of control | dose: 108.0 mg/kg/injection, schedule: Q04DX003 (ip), vehicle: saline 104 % of control | dose: 180.0 mg/kg/injection, schedule: Q04DX003 (ip), vehicle: saline 107 % of control | dose: 500.0 mg/kg/injection, schedule: Q04DX003 (ip), vehicle: saline 123 % of control

C[n+]1ccc(Nc2ccc(NC(=O)c3ccc(Nc4cc[n+](C)c5ccc(N)cc45)cc3)cc2)cc1
inactive: dose: 1.94 mg/kg/injection, schedule: Q04DX003 (ip), vehicle: water 114 % of control | dose: 3.24 mg/kg/injection, schedule: Q04DX003 (ip), vehicle: water 116 % of control | dose: 5.4 mg/kg/injection, schedule: Q04DX003 (ip), vehicle: water 116 % of control

COc1cccc2c1C(=O)c1c(O)c3c(c(O)c1C2=O)C[C@@](O)(C(=O)CO)C[C@@H]3OC1CC(N)C(O)C(C)O1 (stereo partly drawn)
inactive: dose: 0.97 mg/kg/injection, schedule: Q04DX002 (ip), vehicle: saline 118 % of control | dose: 1.3 mg/kg/injection, schedule: Q04DX002 (ip), vehicle: saline 115 % of control and 120 % of control | dose: 2.16 mg/kg/injection, schedule: Q04DX002 (ip), vehicle: saline 120 % of control | dose: 2.7 mg/kg/injection, schedule: Q04DX002 (ip), vehicle: saline 119 % of control | dose: 3.6 mg/kg/injection, schedule: Q04DX002 (ip), vehicle: saline 123 % of control | dose: 6.0 mg/kg/injection, schedule: Q04DX002 (ip), vehicle: saline 121 % of control | dose: 10.0 mg/kg/injection, schedule: Q04DX002 (ip), vehicle: saline 102 % of control and 120 % of control

COc1cc([C@@H]2c3cc4c(cc3[C@@H](OC3OC5CO[C@@H](c6cccs6)OC5C(O)C3O)[C@H]3COC(=O)[C@H]23)OCO4)cc(OC)c1O (stereo partly drawn)
inactive: dose: 3.89 mg/kg/injection, schedule: Q04DX003 (ip), vehicle: clinical formulation 114 % of control | dose: 3.89 mg/kg/injection, schedule: Q04DX003 (ip), vehicle: saline 118 % of control | dose: 6.48 mg/kg/injection, schedule: Q04DX003 (ip), vehicle: clinical formulation 121 % of control | dose: 7.78 mg/kg/injection, schedule: Q04DX003 (ip), vehicle: saline 108 % of control | dose: 10.8 mg/kg/injection, schedule: Q04DX003 (ip), vehicle: clinical formulation 122 % of control | [1] 108 % of control | [2] 111 % of control | [3] 120 % of control

O=C1c2ccccc2C(=O)c2c(NCCNCCO)ccc(NCCNCCO)c21
inactive: [1] 109 % of control | [2] 120 % of control | [3] 123 % of control | dose: 60.0 mg/kg/injection, schedule: Q04DX003 (ip), vehicle: saline 108 % of control

COc1ccc(CCN(C)CCCC(C#N)(c2ccc(OC)c(OC)c2)C(C)C)cc1OC (stereo not drawn)
inactive: dose: 16.0 mg/kg/injection, schedule: Q03HX004 (ip), vehicle: saline 100 % of control | dose: 32.0 mg/kg/injection, schedule: Q03HX004 (ip), vehicle: saline 103 % of control
